The values that follow come from patent US5663182A, “Antipsychotic method” (priority 1996, dated 1997).

Counter-ions that a name gives are not always drawn.

One data set concerns the target muscarinic receptors. The experiment in a line: 3H-oxotremorine-M binding assay. The following applies: 3 nM 3H-oxotremorine-M, rat cerebral cortical membranes, 15 min 25° C.; read-out: Inhibition of 3H-Oxo. The procedure:
Each compound was tested to determine the affinity of the compound for the muscarinic receptors using the following procedure.
For each in vitro binding, male Sprague-Dawley (Harlan Sprague-Dawley, Indianapolis, Ind.) rats weighing from about 100 to about 150 grams each were sacrificed by decapitation. The brains were quickly removed and the cerebral cortex were dissected from the brain. The cerebral cortex tissue was homogenized in 10 volumes of 0.32 M sucrose and […] about 10 minutes at about 1000 x g. The supernatant was centrifuged at about 12,000 x g for about 10 minutes and the resulting pellet was resuspended in 20 mM tris-Cl, pH 7.4. The resuspended pellet was centrifuged again for about 10 minutes at about 50,000 x g. The resulting homogenate was preincubated for about 10 minutes at about 25° C. and centrifuged again for about 10 minutes at about 50,000 x g. The pellet was resuspended at 1 gram of pellet per 3 ml of buffer and frozen at about -80° C. until used.
The aforementioned homogenates mixture was incubated for about 15 minutes at about 25° C. and then the homogenates were filtered through glass filters (Whatman, GF/C) with vacuum. The filters were washed 3 times with about 2 ml of cold tris-Cl buffer, and placed in scintillation vials containing about 10 ml of scintillation fluid (Ready Protein+, Beckman, Fullerton, Calif.). Radioactivity trapped on the filters was determined by liquid scintillation spectrometry. Nonspecific binding was determined using 1 μM atropine. […] DeLean, A. et al. Am.

A further data set concerns Rats. The experiment in a line: Conditioned avoidance behavior in rats. Type of data set: in vivo, rat. The following applies: screening dose 3.0 mg/kg s.c. 30 min before session. The text has this:
In a conditioned avoidance test, animals learn to respond during a conditioned stimulus in order to avoid mild shock presentation. A response during the conditioned stimulus is termed an avoidance respone, a response during shock is termed an escape response; a response failure is when the animal fails to respond during either the conditioned stimlus or the shock presentation and is indicative of motor impairment. […] Antipsychotic drugs decrease the percentage of avoidance responses without interfering with the ability of the animal to respond since the animals do emit escape responses. The percentage of response failures is considered a measure of motor impairment.
Rats were required to press a response lever in an experimental chamber in order to avoid or escape foot-shock. Each experimental session consisted of 50 trials. During each trial, the chamber was illuminated and a tone presented for a maximum of 10 sec. A response during the tone immediately terminated the tone and the houselight, ending the trial. In the absence of a response during the tone alone, tone+foot-shock (2.0 mA) was presented for a maximum of 10 sec. A response during shock presentation immediately terminated the shock, the tone and the houselight, ending the trial.
For drug screening, a dose of 3.0 mg/kg was administered s.c. 30 min before the start of the experimental session.

Data set [1] has as its system psychiatric patients suffering from schizophrenia. The following applies: cited from earlier work.

With `CCSc1nsnc1C1CN2CCC1CC2.O=C(O)C(=O)O` (centres unmarked) [Compound 52, 3-(3-Ethylthio-1,2,5-thiadiazol-4-yl)-1-azabicyclo[2.2.2]octane oxalate], the IC50 at muscarinic receptors was determined as 1.8 nM. The “Conditioned Avoidance % Avoidance Responses” value in the data set on Rats is reported as 63%.

`CCCSc1nsnc1C1CN2CCC1CC2.O=C(O)C(=O)O` (centres unmarked) [Compound 53, 3-(3-Propylthio-1,2,5-thiadiazol-4-yl)-1-azabicyclo[2.2.2]octane oxalate]: on muscarinic receptors, the IC50 turned out to be 0.9 nM. In addition, the “Conditioned Avoidance % Avoidance Responses” value with Rats was determined as 41%.

`O=C(O)/C=C/C(=O)O.c1ccc(OCCSc2nsnc2C2CN3CCC2CC3)cc1` (centres unmarked) [Compound 102, 3-(3-(2-Phenoxyethylthio)-1,2,5-thiadiazol-4-yl)-1-azabicyclo[2.2.2]octane fumarate]: the IC50 at muscarinic receptors was determined as 4.5 nM. Moreover, the “Conditioned Avoidance % Avoidance Responses” value in the data set on Rats is given as 3%.

In the case of `N#CCSc1nsnc1C1CN2CCC1CC2.O=C(O)C(=O)O` (centres unmarked) [Compound 103, 3-(3-Cyanomethylthio-1,2,5-thiadiazol-4-yl)-1-azabicyclo[2.2.2]octane oxalate], the IC50 on muscarinic receptors turned out to be 2.7 nM. Also, in the data set with Rats, the “Conditioned Avoidance % Avoidance Responses” value is reported as 51%.

As for `O=C(O)/C=C/C(=O)O.c1csc(CCCSc2nsnc2C2CN3CCC2CC3)c1` (centres unmarked) [Compound 104, 3-(3-(3-(2-Thienyl)propylthio)-1,2,5-thiadiazol-4-yl)-1-azabicyclo[2.2.2]octane fumarate], the IC50 on muscarinic receptors was found to be 2.6 nM. Besides, the “Conditioned Avoidance % Avoidance Responses” value in the data set on Rats came to 24%.

Consider `Cn1nnnc1SCCCCSc1nsnc1C1CN2CCC1CC2` (centres unmarked) [Compound 106, oxalate], for which the IC50 on muscarinic receptors is 2.8 nM. In addition, the “Conditioned Avoidance % Avoidance Responses” value with Rats was 55%.

Regarding `Cc1nnc(SCCCCSc2nsnc2C2CN3CCC2CC3)s1` (centres unmarked) [Compound 107, oxalate], the IC50 at muscarinic receptors worked out at 1 nM. Moreover, the “Conditioned Avoidance % Avoidance Responses” value in the data set with Rats is on record as 52%.

As for `CSc1nsnc1C1CN2CCC1CC2.O=C(O)C(=O)O` (centres unmarked) [Compound 131, 3-(3-Methylthio-1,2,5-thiadiazol-4-yl)-1-azabicyclo[2.2.2]octane oxalate], the IC50 at muscarinic receptors stood at 2.8 nM. Moreover, the “Conditioned Avoidance % Avoidance Responses” value with Rats turned out to be 53%.

Regarding `CC(C)CCCSc1nsnc1[C@H]1CN2CCC[C@H]1C2` [Compound 157, (+)-Exo-(5R,6R)-6-(3-isohexylthio-1,2,5-thiadiazol-4-yl)-1-azabicyclo[3.2.1]-octane (+) L-tartrate], the IC50 at muscarinic receptors came out at 10 nM. The “Conditioned Avoidance % Avoidance Responses” value in the data set on Rats worked out at 12%.

As for `CC(C)CCCSc1nsnc1[C@@H]1CN2CCC[C@@H]1C2` [Compound 158, (-)-Exo-6-(3-isohexylthio-1,2,5-thiadiazol-4-yl)-1-azabicyclo[3.2.1]octane oxalate], the IC50 on muscarinic receptors was found to be 10 nM. Besides, in the data set on Rats, the “Conditioned Avoidance % Avoidance Responses” value is 47%.

For `CN1CCN(C2=Nc3cc(Cl)ccc3Nc3ccccc32)CC1` [clozapine], the agranulocytosis entry in data set [1] (reported for clinical use) is “cause agranulocytosis in some patients”.

`Cc1cc2c(s1)Nc1ccc(F)cc1N=C2N1CCN(C)CC1` [flumezapine, 7-fluoro-2-methyl-10-(4-methyl-1-piperazinyl)-4H-thieno[2,3-b][1,5]-benzodiazepine]: the “incidence of raised enzyme levels (CPK, SGOT, SGPT) in treated patients” value in data set [1] (17 patients treated, clinical trial terminated) is “unacceptably high incidence of raised enzyme levels”.

As to `O=C(CCCN1CCC(O)(c2ccc(Cl)cc2)CC1)c1ccc(F)cc1` [haloperidol], the extra pyramidal symptoms entry in data set [1] (reported for clinical use) is “high incidence of extra pyramidal symptoms”.
